Common to all, as to type: cell-based
In experiment [1] the target is T1, EGFR exon 20 NPG Ins D770_N771 (Ba/F3 cells) (Homo sapiens, UniProt P00533, INS770NPG).
T1 construct: expressed in transfected cells; host or cells: Ba/F3 (murine pro-B cells), retroviral transduction, puromycin selection, IL3-independent pool
As to the kind of experiment: Inhibitor activity on EGFR-dependent cell growth (CellTiter-Glo, 72 h), Ba/F3 EGFR exon 20 NPG Ins. The note with it: read-out: BaF3 NPG IC50. In outline:
(§1)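 IC50s derive from a sigmoidal dose–response fit of CellTiter-Glo signal. The signal was normalised between […]-treated cells and cell-free medium. Ba/F3 mutant-EGFR cells, seeded at 400–800/well depending on the line, had 72 h of exposure to a 10-point, 3-fold compound series.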

In another experiment the target is T2, EGFR WT (Ba/F3 cells) (Homo sapiens, UniProt P00533).
T2 construct: expressed in transfected cells; host or cells: Ba/F3 (murine pro-B cells), retroviral transduction, puromycin selection, maintained with EGF
As to the kind of experiment: Inhibitor activity on EGFR-dependent cell growth (CellTiter-Glo, 72 h), Ba/F3 EGFR WT. Conditions: read-out: BaF3 WT IC50. In outline: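 This growth assay used Ba/F3 cells that depend on wild-type EGFR and are kept in EGF without IL3. Compounds were made up as 10 mM DMSO stocks and diluted 3-fold over 10 points. 120 nL went onto 600 cells/well. After 72 hours, 40 μL CellTiter-Glo was added and luminescence read on EnVision after 30 min.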
In general terms: In ATP-based viability assays light output follows the ATP content of the culture.

Experiment [2] has as its target T3, EGFR exon 20 ASV Ins V769_D770 (Ba/F3 cells) (Homo sapiens, UniProt P00533, INS769ASV).
T3 construct: expressed in transfected cells; host or cells: Ba/F3 (murine pro-B cells), retroviral transduction, puromycin selection, IL3-independent pool
Description: Inhibitor activity on EGFR phosphorylation (pEGFR AlphaLISA, 2 h), Ba/F3 EGFR exon 20 ASV Ins. The note with it: EGFR phosphorylation, AlphaLISA, 2 hours; read-out: ASV IC50 (pEGFR). In outline:
(§2)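 Ba/F3 cells made IL3-independent by retroviral EGFR mutant expression (puromycin-selected, pooled) and CUTO14 cells were seeded at 50K or 12.5K cells/well, respectively. They were treated 2 h with a 3-fold, 10-point compound series, lysed, and phospho-EGFR was read by AlphaLISA to give IC50.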
A general note: Bead proximity is the source of the signal in Alpha formats.

Experiment [3] addresses T1, EGFR exon 20 NPG Ins D770_N771 (Ba/F3 cells). As to the kind of experiment: Inhibitor activity on EGFR phosphorylation (pEGFR AlphaLISA, 2 h), Ba/F3 EGFR exon 20 NPG Ins. In outline: as §2
Experiment [4] has as its target T4, EGFR exon 20 FQEA Ins A763_V764 (Ba/F3 cells) (Homo sapiens, UniProt P00533, INS763FQEA).
T4 construct: expressed in transfected cells; host or cells: Ba/F3 (murine pro-B cells), retroviral transduction, puromycin selection, IL3-independent pool
As to the kind of experiment: Inhibitor activity on EGFR-dependent cell growth (CellTiter-Glo, 72 h), Ba/F3 EGFR exon 20 FQEA Ins. Conditions: read-out: BaF3 FQEA IC50. In outline: (§3)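 Ba/F3 cells engineered with each EGFR variant were plated (400, 600 or 800 per well for L858R, L858R/C797S, and exon 19del/FQEA). They were exposed for 72 hours to compound serially diluted from a 10 mM DMSO stock. Remaining viable cells were quantified by CellTiter-Glo, and IC50 was curve-fitted.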

The target of the next experiment is EGFR (CUTO14 cells) (Homo sapiens, UniProt P00533). Description: Inhibitor activity on EGFR phosphorylation (pEGFR AlphaLISA, 2 h), CUTO14 cells. In outline:
as §2

For experiment [5], the target named is T5, EGFR exon 20 SVD Ins D770_N771 (Ba/F3 cells) (Homo sapiens, UniProt P00533, INS770SVD).
T5 construct: expressed in transfected cells; host or cells: Ba/F3 (murine pro-B cells), retroviral transduction, puromycin selection, IL3-independent pool
Description: Inhibitor activity on EGFR phosphorylation (pEGFR AlphaLISA, 2 h), Ba/F3 EGFR exon 20 SVD Ins. An excerpt:
Example B. Inhibitor Activity on EGFR phosphorylation (pEGFR)
EGFR mutant Ba/F3 cells were generated by transduction with retrovirus containing vectors expressing EGFR L858R, EGFR exon 19del, EGFR L858R/C797S, EGFR exon 20 NPG Ins D770_N771, EGFR exon 20 ASV Ins V769_D770, or EGFR exon 20 SVD Ins D770_N771 genes along with a puromycin selection marker. Transduced cells are selected with puromycin for 7 days and are then be transferred into culture media without Interleukin 3 (IL3). Surviving cells are confirmed to express EGFR by Western blot and maintained as a pool. CUTO14 cells were obtained from Dr. Robert C. Doebele at the University of Colorado. The IC50 date are included in Table 6 and Table 7.
1.1 Cells are harvested from flask into cell culture medium and the cell number counted.
1.2 Cells are diluted with culture medium to the desired density and 40 μL of cell suspension is added into each well of 384-well cell culture plate and the seeding density is 50K cells/well (Ba/F3) or 12.5K cells/well (CUTO14).
2 Compound Preparation and Treatment
2.1 Test compounds are dissolved to 10 mM in a DMSO stock solution. 45 μL of stock solution is transferred to a 384 polypropylene plate (pp-plate). Perform 3-fold, 10-point dilution via transferring 15 μL compound into 30 μL DMSO using a TECAN (EVO200) liquid handler.
2.2 Spin plates at room temperature at 1,000 RPM for 1 minute.
2.3 Transfer 5 nL of diluted compound from compound source plate into the cell plate.
2.4 After compound treatment for 2 hours, perform pEGFR detection by AlphaLISA for compound treatment plates as described in “Detection” section.
3 Detection by pEGFR AlphaLISA (Perkin-Elmer)
3.1 Plates are removed from incubators and equilibrated at room temperature for 10 minutes, and media was removed
3.2 10 μL of lysis buffer is added and plates shaken at 600 rpm for 1 hr.
3.3 Prepare acceptor mix just before use and dispense 5 μL of acceptor mix to all the wells. Shake 350 rpm for Ihr in the dark
3.4 Prepare donor mix under low light conditions prior to use. Dispense 5 μL of donor mix to all the wells. Mix well on the shaker, seal and wrap in aluminum foil and incubate 1.5 hrs at room temperature in the dark
3.5 Transfer 18.5 μL mixture to OptiPlate 384, and read using an Envision. The IC50 date were included in Table 6 and Table 7.

Experiment [6] has as its target T3, EGFR exon 20 ASV Ins V769_D770 (Ba/F3 cells). Description: Inhibitor activity on EGFR-dependent cell growth (CellTiter-Glo, 72 h), Ba/F3 EGFR exon 20 ASV Ins. The note with it: read-out: BaF3 ASV IC50. In outline:
as §1

For experiment [7], the target named is T5, EGFR exon 20 SVD Ins D770_N771 (Ba/F3 cells). Description: Inhibitor activity on EGFR-dependent cell growth (CellTiter-Glo, 72 h), Ba/F3 EGFR exon 20 SVD Ins. The note with it: read-out: BaF3 SVD IC50. In outline:
as §1

The target of experiment [8] is EGFR exon 19del (Ba/F3 cells) (Homo sapiens, UniProt P00533). Description: Inhibitor activity on EGFR-dependent cell growth (CellTiter-Glo, 72 h), Ba/F3 EGFR exon 19del. The note with it: Ba/F3 EGFR exon 19del cell growth, read-out: BaF3 Del19 IC50. In outline: as §3
The target in a further experiment is T6, EGFR L858R (Ba/F3 cells) (Homo sapiens, UniProt P00533, L858R).
T6 construct: expressed in transfected cells; host or cells: Ba/F3 (murine pro-B cells), retroviral transduction, puromycin selection, IL3-independent pool
As to the kind of experiment: Inhibitor activity on EGFR-dependent cell growth (CellTiter-Glo, 72 h), Ba/F3 EGFR L858R. Conditions: read-out: BaF3 L858R IC50. A digest of the protocol:
as §3

Molecules are shown by their SMILES. Bounds are passed on as bounds.

T2 sequence (P00533 25-1210): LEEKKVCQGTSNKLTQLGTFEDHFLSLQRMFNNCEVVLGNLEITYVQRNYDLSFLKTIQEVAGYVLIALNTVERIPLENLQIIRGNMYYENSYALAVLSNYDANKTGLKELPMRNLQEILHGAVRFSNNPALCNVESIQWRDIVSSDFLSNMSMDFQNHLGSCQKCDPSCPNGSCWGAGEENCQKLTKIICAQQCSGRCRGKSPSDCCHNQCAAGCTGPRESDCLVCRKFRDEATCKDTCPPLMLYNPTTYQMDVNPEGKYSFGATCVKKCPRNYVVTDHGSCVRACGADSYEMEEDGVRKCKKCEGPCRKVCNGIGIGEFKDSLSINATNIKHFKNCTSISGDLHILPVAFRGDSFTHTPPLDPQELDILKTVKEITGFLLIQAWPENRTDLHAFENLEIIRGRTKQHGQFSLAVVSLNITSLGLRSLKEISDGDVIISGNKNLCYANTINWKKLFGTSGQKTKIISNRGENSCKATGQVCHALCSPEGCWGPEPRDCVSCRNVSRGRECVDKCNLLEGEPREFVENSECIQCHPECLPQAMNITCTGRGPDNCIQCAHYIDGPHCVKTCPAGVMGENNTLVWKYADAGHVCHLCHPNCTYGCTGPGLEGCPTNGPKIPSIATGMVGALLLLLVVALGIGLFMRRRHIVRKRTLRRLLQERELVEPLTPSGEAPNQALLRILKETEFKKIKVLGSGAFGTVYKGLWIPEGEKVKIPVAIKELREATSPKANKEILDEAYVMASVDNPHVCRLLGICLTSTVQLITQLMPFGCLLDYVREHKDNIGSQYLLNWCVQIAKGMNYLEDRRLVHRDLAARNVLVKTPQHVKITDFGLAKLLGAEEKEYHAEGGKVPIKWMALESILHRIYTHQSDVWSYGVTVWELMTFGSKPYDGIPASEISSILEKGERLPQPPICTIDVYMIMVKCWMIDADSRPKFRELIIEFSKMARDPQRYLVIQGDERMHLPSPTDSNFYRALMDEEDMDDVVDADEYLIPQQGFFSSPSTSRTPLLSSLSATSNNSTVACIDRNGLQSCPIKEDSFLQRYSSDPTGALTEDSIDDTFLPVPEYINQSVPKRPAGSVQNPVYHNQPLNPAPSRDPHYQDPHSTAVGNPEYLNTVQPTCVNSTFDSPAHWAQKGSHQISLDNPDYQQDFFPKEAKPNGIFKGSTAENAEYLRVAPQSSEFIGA
T4 sequence (P00533 with tags, fused parts or gaps INS763FQEA): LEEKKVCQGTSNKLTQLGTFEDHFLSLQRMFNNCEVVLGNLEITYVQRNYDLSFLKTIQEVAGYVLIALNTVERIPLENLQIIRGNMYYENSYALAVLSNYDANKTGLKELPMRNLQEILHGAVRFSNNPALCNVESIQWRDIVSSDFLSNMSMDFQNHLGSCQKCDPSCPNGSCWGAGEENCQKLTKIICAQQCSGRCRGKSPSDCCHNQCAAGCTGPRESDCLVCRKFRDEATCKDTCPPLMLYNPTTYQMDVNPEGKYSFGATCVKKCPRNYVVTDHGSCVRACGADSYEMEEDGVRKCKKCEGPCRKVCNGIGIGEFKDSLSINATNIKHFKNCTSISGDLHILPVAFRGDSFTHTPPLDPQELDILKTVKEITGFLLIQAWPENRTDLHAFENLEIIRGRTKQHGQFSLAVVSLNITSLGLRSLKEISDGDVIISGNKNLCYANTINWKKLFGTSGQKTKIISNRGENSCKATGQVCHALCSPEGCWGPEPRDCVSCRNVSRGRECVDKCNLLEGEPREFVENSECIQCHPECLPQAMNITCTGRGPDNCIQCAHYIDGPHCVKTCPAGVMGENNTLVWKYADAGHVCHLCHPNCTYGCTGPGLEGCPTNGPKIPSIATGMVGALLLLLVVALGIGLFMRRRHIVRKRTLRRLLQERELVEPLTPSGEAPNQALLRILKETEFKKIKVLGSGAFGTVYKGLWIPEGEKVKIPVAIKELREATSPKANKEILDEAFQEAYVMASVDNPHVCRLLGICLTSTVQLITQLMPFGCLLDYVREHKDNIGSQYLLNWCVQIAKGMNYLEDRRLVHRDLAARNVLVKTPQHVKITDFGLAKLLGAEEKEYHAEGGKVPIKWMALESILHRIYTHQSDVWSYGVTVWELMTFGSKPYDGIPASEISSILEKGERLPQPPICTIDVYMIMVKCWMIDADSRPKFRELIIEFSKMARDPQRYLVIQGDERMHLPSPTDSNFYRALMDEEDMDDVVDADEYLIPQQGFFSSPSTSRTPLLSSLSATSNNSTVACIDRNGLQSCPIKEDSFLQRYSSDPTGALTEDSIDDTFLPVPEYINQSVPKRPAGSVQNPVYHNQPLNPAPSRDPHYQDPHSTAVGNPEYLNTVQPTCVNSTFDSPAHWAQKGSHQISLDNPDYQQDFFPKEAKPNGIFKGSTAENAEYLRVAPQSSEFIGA
EGFR (CUTO14 cells), sequence (P00533 with tags, fused parts or gaps DUP767-769): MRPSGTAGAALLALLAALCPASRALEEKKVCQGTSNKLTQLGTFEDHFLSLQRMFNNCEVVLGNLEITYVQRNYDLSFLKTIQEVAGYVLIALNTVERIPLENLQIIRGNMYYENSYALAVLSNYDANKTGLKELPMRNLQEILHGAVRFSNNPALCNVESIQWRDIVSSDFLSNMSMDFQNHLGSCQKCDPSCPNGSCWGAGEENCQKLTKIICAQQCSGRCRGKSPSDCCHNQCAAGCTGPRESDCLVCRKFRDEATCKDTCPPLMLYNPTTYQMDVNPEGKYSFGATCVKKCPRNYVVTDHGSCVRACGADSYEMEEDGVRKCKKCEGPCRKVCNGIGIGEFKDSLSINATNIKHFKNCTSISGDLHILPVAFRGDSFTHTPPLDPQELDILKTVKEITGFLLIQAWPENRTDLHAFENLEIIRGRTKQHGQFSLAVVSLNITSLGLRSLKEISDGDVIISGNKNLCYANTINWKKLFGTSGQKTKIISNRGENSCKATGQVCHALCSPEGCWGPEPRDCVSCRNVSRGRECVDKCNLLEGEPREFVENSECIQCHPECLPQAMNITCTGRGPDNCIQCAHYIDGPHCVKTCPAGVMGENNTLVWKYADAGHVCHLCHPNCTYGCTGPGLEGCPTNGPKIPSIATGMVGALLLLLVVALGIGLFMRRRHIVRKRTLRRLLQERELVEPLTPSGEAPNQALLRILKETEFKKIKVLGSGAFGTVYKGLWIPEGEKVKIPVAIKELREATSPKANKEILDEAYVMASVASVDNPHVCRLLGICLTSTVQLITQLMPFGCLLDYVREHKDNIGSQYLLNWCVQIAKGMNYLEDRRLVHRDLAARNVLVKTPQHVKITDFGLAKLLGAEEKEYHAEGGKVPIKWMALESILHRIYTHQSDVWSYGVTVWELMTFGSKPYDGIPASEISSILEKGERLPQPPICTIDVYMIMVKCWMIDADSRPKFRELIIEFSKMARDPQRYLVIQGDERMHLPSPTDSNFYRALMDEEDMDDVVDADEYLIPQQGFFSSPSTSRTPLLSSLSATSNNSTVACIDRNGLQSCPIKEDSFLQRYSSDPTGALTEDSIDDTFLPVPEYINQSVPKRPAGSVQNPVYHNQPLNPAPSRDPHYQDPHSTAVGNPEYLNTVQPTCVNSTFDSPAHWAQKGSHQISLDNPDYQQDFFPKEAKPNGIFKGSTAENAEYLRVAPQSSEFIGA
T5 sequence (P00533 with tags, fused parts or gaps INS770SVD): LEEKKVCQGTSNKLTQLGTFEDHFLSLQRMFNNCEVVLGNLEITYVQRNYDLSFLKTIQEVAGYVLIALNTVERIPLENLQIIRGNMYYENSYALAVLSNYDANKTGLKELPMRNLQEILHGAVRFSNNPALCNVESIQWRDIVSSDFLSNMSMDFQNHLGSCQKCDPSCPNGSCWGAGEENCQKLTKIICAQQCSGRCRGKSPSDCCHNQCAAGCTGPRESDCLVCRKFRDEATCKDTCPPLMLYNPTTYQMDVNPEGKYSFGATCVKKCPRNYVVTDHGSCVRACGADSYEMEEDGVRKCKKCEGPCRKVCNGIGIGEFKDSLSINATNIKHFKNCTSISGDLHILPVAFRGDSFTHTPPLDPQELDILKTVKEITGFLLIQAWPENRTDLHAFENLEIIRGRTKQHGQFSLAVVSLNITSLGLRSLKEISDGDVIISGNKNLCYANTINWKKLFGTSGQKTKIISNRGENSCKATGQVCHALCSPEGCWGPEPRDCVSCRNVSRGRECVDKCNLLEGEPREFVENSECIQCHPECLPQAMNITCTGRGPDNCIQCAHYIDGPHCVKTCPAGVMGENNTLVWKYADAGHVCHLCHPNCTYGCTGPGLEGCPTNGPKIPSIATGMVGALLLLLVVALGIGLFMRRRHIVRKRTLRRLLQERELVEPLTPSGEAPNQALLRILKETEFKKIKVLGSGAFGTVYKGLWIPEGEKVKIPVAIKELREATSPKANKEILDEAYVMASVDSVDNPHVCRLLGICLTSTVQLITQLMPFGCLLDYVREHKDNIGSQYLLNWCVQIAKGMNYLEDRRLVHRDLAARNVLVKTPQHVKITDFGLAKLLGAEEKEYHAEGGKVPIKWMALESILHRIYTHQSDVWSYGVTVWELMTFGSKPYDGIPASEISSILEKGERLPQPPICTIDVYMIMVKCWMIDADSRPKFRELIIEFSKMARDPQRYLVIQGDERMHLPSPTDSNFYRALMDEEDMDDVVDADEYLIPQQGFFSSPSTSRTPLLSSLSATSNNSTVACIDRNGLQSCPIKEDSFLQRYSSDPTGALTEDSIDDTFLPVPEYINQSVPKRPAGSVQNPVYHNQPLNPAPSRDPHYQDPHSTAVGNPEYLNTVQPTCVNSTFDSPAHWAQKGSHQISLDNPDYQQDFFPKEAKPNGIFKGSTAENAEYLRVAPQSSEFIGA

Usually IC50 stands for the concentration that gives 50% inhibition. In the case of `COc1c(Cl)cccc1Nc1c(-c2ccnc(N)n2)[nH]c2c1C(=O)NCC2` [Compound 148, 2-(2-aminopyrimidin-4-yl)-3-((3-chloro-2-methoxyphenyl)amino)-1,5,6,7-tetrahydro-4H-pyrrolo[3,2-c]pyridin-4-one], the concentration for half-maximal inhibition (IC50) in [1] was less than 100 nM; at EGFR WT (Ba/F3 cells) it was 100 to 1000 nM; in [2], less than 100 nM; in experiment [3], less than 100 nM; in experiment [4], 100 to 1000 nM; against EGFR (CUTO14 cells), less than 100 nM. Besides, in experiment [5], the IC50 is less than 100 nM.

Consider `COc1c(Cl)cccc1Nc1c(-c2ccnc(N)n2)[nH]c2c1C(=O)NC[C@H]2C[C@@H]1COCCO1` [Compound 567, (7R)-2-(2-aminopyrimidin-4-yl)-3-[(3-chloro-2-methoxyphenyl)amino]-7-[(2R)-1,4-dioxan-2-ylmethyl]-1H,5H,6H,7H-pyrrolo[3,2-c]pyridin-4-one], for which the IC50 was less than 100 nM in experiment [1]; less than 100 nM in experiment [6]; less than 100 nM in experiment [7]; 100 to 1000 nM on EGFR WT (Ba/F3 cells); less than 100 nM in experiment [2]; less than 100 nM in [3]. Also, the 50% inhibitory concentration (IC50) (in experiment [4]; in experiment [8]; against EGFR (CUTO14 cells); on EGFR L858R (Ba/F3 cells); in experiment [5]) was less than 100 nM in each case.

Consider `COc1c(Cl)cccc1Nc1c(-c2ccnc(Nc3ccn(CC(F)F)n3)n2)[nH]c2c1C(=O)NCC2` [compound 515, 3-[(3-chloro-2-methoxyphenyl)amino]-2-(2-{[1-(2,2-difluoroethyl)pyrazol-3-yl]amino}pyrimidin-4-yl)-1H,5H,6H,7H-pyrrolo[3,2-c]pyridin-4-one], for which the IC50 (in experiment [1]; in [6]; in experiment [7]; at EGFR WT (Ba/F3 cells); in experiment [2]; in experiment [3]) was less than 100 nM each time. The IC50 (in experiment [4]; in [8]; on EGFR (CUTO14 cells); at EGFR L858R (Ba/F3 cells); in experiment [5]) was less than 100 nM throughout.

Regarding `COc1c(Cl)cccc1Nc1c(-c2ccnc(Nc3cnnn3C)n2)[nH]c2c1C(=O)NCC2` [compound 512, 3-[(3-chloro-2-methoxyphenyl)amino]-2-{2-[(3-methyl-1,2,3-triazol-4-yl)amino]pyrimidin-4-yl}-1H,5H,6H,7H-pyrrolo[3,2-c]pyridin-4-one], the IC50 in experiment [1] was less than 100 nM; in [6], less than 100 nM; in experiment [7], less than 100 nM; at EGFR WT (Ba/F3 cells), 100 to 1000 nM; in experiment [2], less than 100 nM; in [3], less than 100 nM. Moreover, the IC50 (in experiment [4]; on EGFR (CUTO14 cells); in [5]) was less than 100 nM in each case.

With `COc1c(Cl)cccc1Nc1c(-c2ccnc3c(N)noc23)[nH]c2c1C(=O)NCC2` [compound 524, 2-{3-amino-[1,2]oxazolo[4,5-b]pyridin-7-yl}-3-[(3-chloro-2-methoxyphenyl)amino]-1H,5H,6H,7H-pyrrolo[3,2-c]pyridin-4-one], the IC50 is less than 100 nM in experiment [1]; less than 100 nM in experiment [6]; less than 100 nM in experiment [7]; 100 to 1000 nM on EGFR WT (Ba/F3 cells); less than 100 nM in experiment [2]; less than 100 nM in experiment [3]. Also, the IC50 (against EGFR (CUTO14 cells); in [5]) was less than 100 nM each time.

As for `COCC[C@@H]1CNC(=O)c2c1[nH]c(-c1ccnc(N)n1)c2Nc1cccc(Cl)c1OC` [Compound 726, (7R)-2-(2-aminopyrimidin-4-yl)-3-[(3-chloro-2-methoxyphenyl)amino]-7-(2-methoxyethyl)-1H,5H,6H,7H-pyrrolo[3,2-c]pyridin-4 one], the IC50 (in experiment [1]; in experiment [6]; in [7]; on EGFR WT (Ba/F3 cells); in [2]; in experiment [3]) was less than 100 nM each time. Also, the IC50 (in experiment [4]; against EGFR (CUTO14 cells); in experiment [5]) was less than 100 nM each time.

With `COc1ncc2nccc(-c3[nH]c4c(c3Nc3cccc(Cl)c3OC)C(=O)NCC4)c2n1` [compound 408], the IC50 (in experiment [1]; in experiment [6]; in experiment [7]; on EGFR WT (Ba/F3 cells); in experiment [2]; in [3]) was less than 100 nM in each case. Moreover, the IC50 (in experiment [4]; on EGFR (CUTO14 cells); in experiment [5]) was less than 100 nM in each case.

As to `C=CC(=O)N1CCC2(CC1)CNC(=O)c1c2[nH]c(-c2ccnc3ccc(OC)nc23)c1Nc1cccc(F)c1OC` [Compound 160, 1-acryloyl-3′-((3-fluoro-2-methoxyphenyl)amino)-2′-(6-methoxy-1,5-naphthyridin-4-yl)-5′,6′-dihydrospiro[piperidine-4,7′-pyrrolo[3,2-c]pyridin]-4′(1′H)-one], the IC50 in experiment [1], in experiment [6], in experiment [7], in experiment [2], in experiment [3] and in [4] was less than 100 nM in each case. The IC50 (on EGFR (CUTO14 cells); in [5]) was less than 100 nM each time.

With `COc1c(Cl)cccc1Nc1c(-c2ccnc(Nc3cnn(CC(F)F)c3)n2)[nH]c2c1C(=O)NCC2` [compound 514, 3-[(3-chloro-2-methoxyphenyl)amino]-2-(2-{[1-(2,2-difluoroethyl)pyrazol-4-yl]amino}pyrimidin-4-yl)-1H,5H,6H,7H-pyrrolo[3,2-c]pyridin-4-one], the IC50 was 100 to 1000 nM in [1]; less than 100 nM in experiment [6]; less than 100 nM in [7]; less than 100 nM at EGFR WT (Ba/F3 cells); less than 100 nM in experiment [2]; less than 100 nM in experiment [3]. Besides, the results for the IC50 (in experiment [4]; against EGFR (CUTO14 cells); in experiment [5]) were less than 100 nM, 100 to 1000 nM and less than 100 nM, respectively.

(Values after patent US20240101576A1, “HETEROCYCLIC INHIBITORS OF EGFR AND/OR HER2, FOR USE IN THE TREATMENT OF CANCER” (Scorpion Therapeutics, Inc., priority 2020, published 2024).)
